The test system of the assay is CHOP reporter cell assay, percent of control. Briefly: CHOP reporter inhibitor potency, dose response, cell-based (AID 504322).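 Also: CHO cells carrying a CHOP reporter stimulated with tunicamycin to induce ER stress; potency is for inhibition of the stress-induced reporter signal.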

Calls of active or inactive are those of the source. No rule for the calls is given here. Where only a bound is given, the exact number is not on record here.

The term IC50 denotes the concentration that gives 50% inhibition. Take `CCCCCc1c(C)nc(Nc2ccccc2)[nH]c1=O`: the IC50 was 9.72 µM (inactive). For `O=C(CCCOc1ccc(Cl)cc1Cl)N/N=C\C1CCCCC1` the value was 5.03 µM (inactive). For `O=C(On1c(-c2ccccc2)nc2ccccc2c1=O)c1ccco1` the value was > 10 µM (inactive); for `O=C(C1=C(c2ccccc2)C(=O)c2ccccc2C1=O)c1ccccc1`, 4.73 µM. For `CC(C)(C)C1CCC(C(=O)OCC(=O)c2ccc[nH]2)CC1` (configuration not stated), the IC50 was 6.04 µM (inactive). The figure for `C=CS(=O)(=O)c1ccc(Oc2ccc(S(=O)(=O)C=C)cc2)cc1` is 1.7 µM; for `CC(C)(C)c1cc(CN2CCCC(O)C2)c(O)c(C(C)(C)C)c1` (configuration not stated) it is 5.02 µM. For `CCn1c(=O)c(C(=O)Nc2nc3ccccc3[nH]2)c(O)c2ccccc21` the value was 5.84 µM (inactive). The figure for `CN(C)c1ccc(/C=C/c2ccc3c4ccccc4ccc3[n+]2-c2ccccc2)cc1` is 1.14 µM (inactive); for `CC1=CC2/C=C(\C)CCC(O)C(O)/C=C/C(=O)C23C(=O)NC(CC(C)C)C3C1C` (configuration not stated) it is 9.69 µM (inactive). Take `O=C(Nc1ccccc1)C1=C(c2ccccc2)S(=O)(=O)CCS1(=O)=O`: the IC50 was 9.67 µM (inactive).

Turning to `Cc1cc(C)c2nc(C(F)(F)F)c(C#N)c(N)c2c1`, the IC50 is 8.25 µM (inactive). The figure for `Cc1ccc2nc(Nc3ccc4[nH]c(=O)[nH]c4c3)c(-n3nc(C)cc3C)nc2c1` is 6.47 µM; for `CC(=O)C1=C(c2ccc(Br)cc2)C(=O)c2ccccc2C1=O` it is 5.57 µM (inactive); for `Cc1ccc(Cn2c(SCC(=O)Nc3cc(C)on3)nc3ccccc3c2=O)cc1` it is 5.78 µM (inactive).

As for `CC(C)(C)C(=O)NC(NC(=S)Nc1sc2c(c1C#N)CCCC2)C(Cl)(Cl)Cl` (configuration not stated), the IC50 was > 10 µM (inactive). On to `O=C(N/N=C/c1ccccn1)c1cc(-c2ccc3ccccc3c2)n[nH]1`, for which the IC50 was > 10 µM (inactive). `CCCCCn1c(=O)c(C(=O)Nc2nc3ccccc3[nH]2)c(O)c2ccccc21`: the IC50 was 4.96 µM.

Take `O=C(Nc1cc(Cl)ccc1O)c1cc2n(n1)C(C(F)(F)F)CC(c1ccc3c(c1)OCO3)N2` (configuration not stated): the half-maximal inhibitory concentration (IC50) was 1.97 µM.

Regarding `COc1ccc(N=CC2=C(O)c3ccccc3C2=O)c(OC)c1`, the IC50 is 6.53 µM (inactive). The figure for `Cc1ccc(C)c(OCc2ccc(C(=O)N3N=C(C(F)F)CC3(O)C(F)F)o2)c1` (configuration not stated) is 2.89 µM; for `Cc1ccc(-c2nn(CC(=O)NCc3cc(-c4nn(C)c(=O)c5ccccc45)ccc3C)c(=O)c3ccccc23)cc1` it is 9.88 µM (inactive); for `Cc1ccc(NC(=O)O/N=C/c2c(C)nn(C(C)(C)C)c2C)cc1Cl` it is < 0.16 µM.

For the molecule `Cc1cccc(OCc2n(CC(=O)OC3CC(C)CCC3C(C)C)c3ccccc3[n+]2C)c1` (configuration not stated), the IC50 was > 10 µM (inactive).

Consider `Cn1c(-c2cccc(OCc3ccccc3)c2)nc2c1c(=O)[nH]c(=O)n2Cc1ccccc1`, for which the IC50 is > 10 µM (inactive). Turning to `O=c1[nH]c(=O)n(Cc2ccco2)c2c1C(C(F)(F)F)(C(F)(F)F)N=C(c1ccc(F)cc1)N2`, the IC50 is 6.5 µM (inactive). For `O=C(/C=C/Sc1ncn[nH]1)c1ccc(Cl)cc1` the value was > 10 µM (inactive); for `CC(C)(C)c1cc(S(=O)(=O)CCc2ccccn2)cc(C(C)(C)C)c1F`, 3.6 µM; for `CCCCC(CC)Cn1c2nc3ccccc3nc2c2c(=N)oc(C)nc21` (configuration not stated), 7.13 µM (inactive).

For the molecule `CCc1ccc(-c2nc(CN3CCC(C(=O)NCCN(CC)c4ccccc4)CC3)c(C)o2)cc1`, the IC50 was 3.46 µM (inactive). The figure for `CCOc1cc(/C=C2/C(=O)ON=C2C)ccc1OCc1ccccc1F` is 9.48 µM (inactive); for `N=C(N)c1c(O)n(C2CCCCC2)c(=O)n(C2CCCCC2)c1=O` it is 2.77 µM. The figure for `CCCCc1nc(NCCN)c(C#N)c2c1CSC(C)(C)C2` is 5.15 µM (inactive); for `COc1ccc(C(=O)/C=C/C(=O)N(CC(=O)NCCC(C)C)Cc2cccs2)c(O)c1` it is 9.55 µM (inactive). For `O=C(OCn1ncc(Cl)c(Cl)c1=O)c1ccc(F)cc1` the value was 3.35 µM; for `Nc1ccc2oc(-c3cc(Br)ccc3Cl)nc2c1`, 0.71 µM; for `COC(=O)C[C@]1(C(=O)OC)CN(C#N)N(c2ccc(Cl)cc2)C12c1ccccc1-c1ccccc12`, 2.16 µM.

As for `CCOc1cc(/C=C2/C(=O)ON=C2C)ccc1OCc1ccc(F)cc1`, the IC50 was 9.5 µM (inactive). Regarding `CCN(CCO)c1ncnc2c1sc1nc(C(C)C)c3c(c12)CC(C)(C)OC3`, the IC50 was 9.63 µM (inactive). The figure for `Cc1ccc(-c2nc3cc(NS(=O)(=O)c4ccc(C)cc4)ccc3o2)cc1` is 5.63 µM (inactive); for `C=C1C(=O)O[C@@H]2C[C@@H](C)[C@@H]3C4OC4C(=O)[C@@]3(C)[C@@H](O)[C@H]12` (some centres not stated) it is 9.5 µM (inactive).

With `CCN(CC)S(=O)(=O)c1cccc(NC(=O)Nc2cccc(C(F)(F)F)c2)c1`, the IC50 was 8.55 µM (inactive). The figure for `Cc1cc(C(C)(C)C)oc1C(=O)N1CCN(C(=O)c2oc(C(C)(C)C)cc2C)CC1` is 9.99 µM (inactive).

Regarding `Cc1nn(-c2ccccc2Cl)c(Cl)c1/C=N/Nc1nc2ccccc2s1`, the half-maximal inhibitory concentration (IC50) was < 0.16 µM. The figure for `CCCCCCN=C(CC)c1c(O)n(CCCC)c(=O)[nH]c1=O` is 7.59 µM (inactive); for `COc1cc(/C=C(/C#N)c2nc3ccccc3[nH]2)ccc1OCC(=O)Nc1ccccc1C(C)C` it is 4.54 µM; for `CCCCCCCC(=O)N/N=C/c1ccc(Br)cc1` it is 3.51 µM. For `Cc1ccc2[nH]c(O)c(N=NC(=O)CCc3ccccc3)c2c1Br` the value was 4.27 µM; for `CCCC(=O)N1CCN(c2ccc(NC(=O)c3cc4ccccc4o3)cc2Cl)CC1`, 5.4 µM (inactive); for `OCCCNc1nccc(-c2cc(Nc3cccc(Cl)c3)ncn2)n1`, 0.3 µM. For `CC(C)(C)c1ccc(-c2noc(CCC(N)=O)n2)cc1`, the concentration for half-maximal inhibition (IC50) is < 0.16 µM. The figure for `CCCCc1ccc(Nc2nc(CCC)cc(=O)[nH]2)cc1` is 1.97 µM (inactive).

Turning to `CCOC(=O)c1[nH]c2ccc(Cl)cc2c1-c1ccccc1`, the IC50 was 9.7 µM (inactive). The figure for `Oc1cccc(-c2nc3c4c(ncn3n2)-c2ccccc2CC42CCCC2)c1` is 5.25 µM (inactive).

For the molecule `COC(=O)[C@@H]1[C@@H](C(=O)OC)C2(c3ccccc3-c3ccccc32)N(c2ccc(Cl)cc2)N1C#N`, the half-inhibitory concentration (IC50) is 4.53 µM.

Turning to `Cc1nc(COC(=O)c2cc(O)c3ccccc3c2O)cs1`, the IC50 is > 10 µM (inactive). `COc1cc(C(=O)OC(C)C(=O)NCC2CCCCC2)cc(NC(=O)c2ccco2)c1OC` (configuration not stated): the IC50 was > 10 µM (inactive).

Regarding `CCCCC(CC)C(=O)Oc1ccc(O)c(C(C)(C)C)c1` (configuration not stated), the IC50 is 2.37 µM (inactive). The figure for `O=C(Nc1ccc(Oc2c(F)c(F)c(F)c(F)c2F)cc1)OC1CCN2Cc3ccccc3N=C12` (configuration not stated) is 8.37 µM (inactive); for `CC(C)Oc1cc(NC(=O)CS(=O)CC(=O)Nc2cccc(C(F)(F)F)c2)c(Cl)cc1Cl` (configuration not stated) it is 7.99 µM (inactive). For `CC(C)CCSc1nc2c(c(=O)[nH]c(=O)n2C)n1CCCc1ccccc1` the value was 5.19 µM.

In the case of `CC(C)(C)c1cc(-c2csc(Nc3ccccc3)[n+]2Cc2ccc(C(=O)O)cc2)cc(C(C)(C)C)c1O`, the IC50 was 9.46 µM (inactive).

Source of the values: PubChem BioAssay AID504322 (Emory University Molecular Libraries Screening Center, 2011).
